What was measured:
Details in all cases: 48 h
[1] = tested on: SEM cells; test: cell viability relative to DMSO control; higher = less cytotoxic
In short: (§1)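 Library compounds in DMSO were pin-dosed into 1536-well plates (5 μl) holding NOMO1 or SEM (500 cells/well) or P12-Ichikawa (1000 cells/well) leukemia cells, across an 11-point threefold series of 47 μM to 0.79 nM. Each cell line had been adapted for at least four passages in each medium. CellTiter-Glo One luminescence was read after 48 h at 37°C. Viability is the per-plate percentage relative to DMSO wells, with cell-free wells as background.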

[2] = tested on: P12-Ichikawa; test: as above
In short: as §1

[3] = tested on: NOMO1; test: as above
In short: as §1

[4] = tested on: SEM cells; test: AUC of viability dose-response curve (% viability x log10 dose units); higher = less sensitive
In short: (§2)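 Leukemia cells adapted to each medium (500 or 1000 cells/well, 1536-well plates) were exposed to library compounds in DMSO for 48 h at 37°C at 11 threefold doses, 47 μM to 0.79 nM. Luminescence by CellTiter-Glo One was normalised per plate to DMSO and cell-free wells, then fitted with a four-parameter log-logistic curve on log10 dose. Curves above full viability were scaled and quality-control failures removed before area under the curve was integrated by trapezoidal rule.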

[5] = tested on: P12-Ichikawa; test: as above
In short: as §2

[6] = tested on: NOMO1; test: as above
In short: as §2

CCCCc1nc2cc(/C=C/C(=O)NO)ccc2n1CCN(CC)CC
cell viability [%]
Details	[1]	[2]	[3]
HPLM + 10% dialyzed FBS, 0.000781 µM	91.9	93	109
HPLM + 10% dialyzed FBS, 0.00234 µM	91.8	98.5	112
HPLM + 10% dialyzed FBS, 0.00702 µM	105	103	94.2
HPLM + 10% dialyzed FBS, 0.0211 µM	98.1	95.9	106
HPLM + 10% dialyzed FBS, 0.0632 µM	108	95.7	86.9
HPLM + 10% dialyzed FBS, 0.19 µM	108	104	99.7
HPLM + 10% dialyzed FBS, 0.569 µM	92.6	90.1	85.1
HPLM + 10% dialyzed FBS, 1.71 µM	61.1	83.7	84.8
HPLM + 10% dialyzed FBS, 5.12 µM	6.03	3.65	39.3
HPLM + 10% dialyzed FBS, 15.4 µM	4.68	2.43	4.23
HPLM + 10% dialyzed FBS, 46.1 µM	5.88	4.19	6.15
RPMI 5 mM glucose + 10% FBS, 0.000781 µM	85.4	86.9	80.5
RPMI 5 mM glucose + 10% FBS, 0.00234 µM	99.1	96.3	83.2
RPMI 5 mM glucose + 10% FBS, 0.00702 µM	94.8	96.2	83.2
RPMI 5 mM glucose + 10% FBS, 0.0211 µM	97.8	83.5	87.1
RPMI 5 mM glucose + 10% FBS, 0.0632 µM	109	101	94.2
RPMI 5 mM glucose + 10% FBS, 0.19 µM	107	91.3	89.3
RPMI 5 mM glucose + 10% FBS, 0.569 µM	94	95.7	86.8
RPMI 5 mM glucose + 10% FBS, 1.71 µM	73	85.7	85.9
RPMI 5 mM glucose + 10% FBS, 5.12 µM	5.16	12.3	28.6
RPMI 5 mM glucose + 10% FBS, 15.4 µM	4.06	2.22	4.31
RPMI 5 mM glucose + 10% FBS, 46.1 µM	5.64	3.51	4.51
RPMI 5 mM glucose + 10% dialyzed FBS, 0.000781 µM	82.9	95.7	74.9
RPMI 5 mM glucose + 10% dialyzed FBS, 0.00234 µM	79.1	95.6	98.4
RPMI 5 mM glucose + 10% dialyzed FBS, 0.00702 µM	95.6	93.5	86.4
RPMI 5 mM glucose + 10% dialyzed FBS, 0.0211 µM	94	90.4	91.5
RPMI 5 mM glucose + 10% dialyzed FBS, 0.0632 µM	77.5	100	94.3
RPMI 5 mM glucose + 10% dialyzed FBS, 0.19 µM	99.6	101	97.2
RPMI 5 mM glucose + 10% dialyzed FBS, 0.569 µM	76.6	98.6	86.2
RPMI 5 mM glucose + 10% dialyzed FBS, 1.71 µM	57.7	79.5	79.3
RPMI 5 mM glucose + 10% dialyzed FBS, 5.12 µM	6.04	17.6	57.9
RPMI 5 mM glucose + 10% dialyzed FBS, 15.4 µM	4.68	1.97	5.08
RPMI 5 mM glucose + 10% dialyzed FBS, 46.1 µM	6.77	3.51	4.97

AUC of viability dose-response curve
Details	[4]	[5]	[6]
HPLM + 10% dialyzed FBS	344	345	370
RPMI 5 mM glucose + 10% FBS	345	337	326
RPMI 5 mM glucose + 10% dialyzed FBS	303	348	349

NC[C@H]1O[C@H](O[C@H]2[C@H](O)[C@@H](O[C@H]3O[C@H](CO)[C@@H](O)[C@H](N)[C@H]3O)[C@H](N)C[C@@H]2N)[C@H](N)C[C@@H]1O
cell viability [%]
Details	[1]	[2]	[3]
HPLM + 10% dialyzed FBS, 0.000781 µM	88.9	112	103
HPLM + 10% dialyzed FBS, 0.00234 µM	95.3	98.8	99.1
HPLM + 10% dialyzed FBS, 0.00702 µM	98.6	110	122
HPLM + 10% dialyzed FBS, 0.0211 µM	108	106	92.5
HPLM + 10% dialyzed FBS, 0.0632 µM	104	117	110
HPLM + 10% dialyzed FBS, 0.19 µM	92.9	109	106
HPLM + 10% dialyzed FBS, 0.569 µM	107	106	112
HPLM + 10% dialyzed FBS, 1.71 µM	96.9	99.8	102
HPLM + 10% dialyzed FBS, 5.12 µM	101	110	102
HPLM + 10% dialyzed FBS, 15.4 µM	101	101	91.9
HPLM + 10% dialyzed FBS, 46.1 µM	109	96.6	106
RPMI 5 mM glucose + 10% FBS, 0.000781 µM	93.7	102	109
RPMI 5 mM glucose + 10% FBS, 0.00234 µM	97.1	111	103
RPMI 5 mM glucose + 10% FBS, 0.00702 µM	106	95.9	101
RPMI 5 mM glucose + 10% FBS, 0.0211 µM	98.6	116	110
RPMI 5 mM glucose + 10% FBS, 0.0632 µM	119	107	104
RPMI 5 mM glucose + 10% FBS, 0.19 µM	109	106	103
RPMI 5 mM glucose + 10% FBS, 0.569 µM	112	97.1	105
RPMI 5 mM glucose + 10% FBS, 1.71 µM	95.6	85.9	94.6
RPMI 5 mM glucose + 10% FBS, 5.12 µM	89	94	104
RPMI 5 mM glucose + 10% FBS, 15.4 µM	100	98.5	101
RPMI 5 mM glucose + 10% FBS, 46.1 µM	111	105	107
RPMI 5 mM glucose + 10% dialyzed FBS, 0.000781 µM	105	110	95.3
RPMI 5 mM glucose + 10% dialyzed FBS, 0.00234 µM	105	116	101
RPMI 5 mM glucose + 10% dialyzed FBS, 0.00702 µM	118	117	95.2
RPMI 5 mM glucose + 10% dialyzed FBS, 0.0211 µM	116	119	96
RPMI 5 mM glucose + 10% dialyzed FBS, 0.0632 µM	107	112	96.6
RPMI 5 mM glucose + 10% dialyzed FBS, 0.19 µM	108	88.5	99.7
RPMI 5 mM glucose + 10% dialyzed FBS, 0.569 µM	110	79.7	94.3
RPMI 5 mM glucose + 10% dialyzed FBS, 1.71 µM	104	91.6	89.7
RPMI 5 mM glucose + 10% dialyzed FBS, 5.12 µM	112	91	81.7
RPMI 5 mM glucose + 10% dialyzed FBS, 15.4 µM	103	94.6	97.2
RPMI 5 mM glucose + 10% dialyzed FBS, 46.1 µM	111	117	93.4

AUC of viability dose-response curve
Details	[4]	[5]	[6]
HPLM + 10% dialyzed FBS	455	459	467
RPMI 5 mM glucose + 10% FBS	470	455	467
RPMI 5 mM glucose + 10% dialyzed FBS	469	413	452
